Results from patent EP0620231B1, “Human parvovirus B19 epitope-related peptide” (Shin-Etsu Chemical Co., Ltd., priority 1993, dated 1996).

Columns and labels:
[1] = tested on: anti-HPV B19 antibodies; assay: Detection Example 3: determination of IgG with peptide immobilized through biotin-avidin affinity; type: binding, human; settings: biotinylated peptide on avidin plate, Fig. 6
Procedure: This Example is given for illustrating a method in which the immobilized solid support is prepared by immobilizing peptide onto the solid support through the use of the biotin-avidin affinity to thus determine the IgG antibody. First of all, a 250 µg/mℓ solution of biotin-N-hydroxysuccinimide ester (NHS-Biotin) was dispensed to wells (100µℓ each) of a microtiter plate of polystyrene carrying, on the surface, amino groups and the reaction was continued at 37 °C for 2 hours. Then the microtiter plate was washed 6 times with a phosphate buffer, a 50µg/mℓ solution of avidin was dispensed to the wells (100µℓ each) and they were reacted at 37 °C for one hour.
The biotinylated peptide used herein was obtained by coupling NHS-Biotin to the N-terminal of the protected peptide prepared in the same manner used in the foregoing Peptide Preparation Example followed by removal of the protective groups and purification carried out according to the same manner used in the foregoing Peptide Preparation Example. The resulting biotinylated peptide was washed 6 times with a phosphate buffer and subjected to blocking and assay according to the same method used in Detection Example 2.
The peptide of Formula (1) was used in this determination. In addition, the peptides of Formulae (2) and (3) were also used as comparative peptides. The results thus obtained are plotted on Fig. 6. […]

[2] = tested on: anti-HPV B19 antibodies; assay: Secondary screening: reactivity of free synthetic peptides with anti-HPV B19 antibodies; type: binding; settings: for Reactivity with Anti-HPV B19 Antibodies: free peptides, symbols ⓞ, X printed without a legend
Source text: A secondary screening would be carried out to make clear the reactivity of a free peptide with the anti-HPV B19 antibodies. In this respect, the synthesis of such a free peptide should be performed while taking, into consideration, the degree of difficulty in synthesizing and purifying the corresponding amino acid sequence. Moreover, the number of amino acid residues in the free peptide should be determined after inquiring into possible structures of each amino acid sequence, i.e., the result of the secondary structure-determination using the computer program.
The foregoing primary screening was performed by preparing peptides each equally having 15 amino acid residues therein, but the secondary screening was carried out while preparing various peptides having variously changed amino acid residue numbers due to the reasons discussed above and the inventors have narrowed down to 6 amino acid sequences listed in the following Table 2.
Finally, 6 kinds of free peptides corresponding to the foregoing 6 amino acid sequences were synthesized and were inspected for the reactivity with the anti-HPV B19 antibodies. […]

[3] = tested on: IgM among the anti-HPV antibodies; assay: Detection Example 2: ELISA detection of immunoglobulin M (IgM) in patient serum on immobilized peptide; type: binding; settings: ELISA with HRP-labeled human IgM antibody; Fig. 5
Source text: In this example, the serum obtained from a patient infected with HPV B19 was inspected for the presence of an IgM antibody by the ELISA method. The same procedures used in Detection Example 1 were repeated to give an immobilized solid support and to carry out the same assay except that HRP-labeled human IgM antibody was substituted for the HRP-labeled human IgG antibody used in Detection Example 1.
The peptide of Formula (1) was used in this determination. In addition, the peptides of Formulae (2) and (3) were also used as comparative peptides. The results thus obtained are plotted on Fig. 5.

[4] = tested on: anti-HPV B19 antibody (IgG); assay: Detection Example 1: ELISA detection of immunoglobulin G (IgG) in patient serum on immobilized peptide; type: binding, human; settings: Fig. 4
Procedure: In this example, the serum obtained from a patient infected with HPV B19 was inspected for the presence of an IgG antibody by the ELISA method. A microtiter plate made of polystyrene was used as a solid support. A peptide solution whose peptide concentration was adjusted to 10µg/mℓ with a phosphate buffer was dispensed to the wells (100µℓ each) of the plate and then the peptide was allowed to be immobilized at room temperature overnight to give an immobilized solid support. The immobilized solid support was then treated with blocking agent for inhibiting any non-specific adsorption reaction of unlinked sites present on the solid support with the IgG antibody. […]
The microtiter plate was washed 6 times with a phosphate buffer, then horseradish peroxidase (HRP)-labeled anti-human IgG antibody which was diluted 1000 times with the same buffer was dispensed to the wells (100µℓ each) and they were reacted at 37°C for one hour. […] The colored product was inspected for the presence of HRP through determination of absorbance at a wavelength of 492 nm using a microtiter plate reader.
The peptide of Formula (1) was used in this determination. […] In Fig. 4, the time after onset of illness is plotted as abscissa and the absorbance as ordinate.

SMILES	reactivity at the initial stage of the infection (the acute stage) [1]	reactivity with the anti-HPV B19 antibodies [1]	reactivity with the anti-HPV B19 antibodies compared with the peptide reported by Sato et al. ([2]; comparison with peptide VP2 328-344)	Reactivity with Anti-HPV B19 Antibodies [2]	reactivity with IgM among the anti-HPV antibodies [3]	reactivity with the anti-HPV B19 antibody (IgG) ([4]; ELISA, absorbance at 492 nm, serum diluted 200 times, peptide 10 µg/ml)	reactivity at the initial stage of the infection (the acute stage) ([4]; IgG ELISA, time after onset of illness)
CC[C@H](C)[C@H](NC(=O)CNC(=O)[C@@H](NC(=O)[C@@H](NC(=O)[C@H](Cc1ccc(O)cc1)NC(=O)[C@H](CCCCN)NC(=O)[C@H](CC(=O)O)NC(=O)[C@@H](NC(=O)[C@H](CC(=O)O)NC(=O)[C@H](Cc1c[nH]c2ccccc12)NC(=O)[C@H](Cc1c[nH]cn1)NC(=O)[C@H](Cc1c[nH]cn1)NC(=O)[C@H](Cc1ccc(O)cc1)NC(=O)[C@@H]1CCCN1C(=O)[C@@H](N)CCC(N)=O)[C@@H](C)O)C(C)C)[C@@H](C)O)C(=O)N[C@@H](CC(N)=O)C(=O)N[C@@H](C)C(=O)N[C@H](C(=O)N[C@@H](CO)C(=O)N[C@@H](Cc1c[nH]cn1)C(=O)NCC(=O)N[C@@H](CCC(N)=O)C(=O)N[C@H](C(=O)N[C@H](C(=O)N[C@@H](Cc1ccc(O)cc1)C(=O)O)[C@@H](C)O)[C@@H](C)O)[C@@H](C)CC [Formula (1)]	strong reactivity	high reactivity	extremely high	ⓞ	high reactivity	high reactivity	strong reactivity
CC(C)C[C@H](N)C(=O)N[C@@H](CCCNC(=N)N)C(=O)N1CCC[C@H]1C(=O)NCC(=O)N1CCC[C@H]1C(=O)N[C@H](C(=O)N[C@@H](CO)C(=O)N[C@@H](CCC(N)=O)C(=O)N1CCC[C@H]1C(=O)N[C@@H](Cc1ccc(O)cc1)C(=O)N[C@@H](Cc1c[nH]cn1)C(=O)N[C@@H](Cc1c[nH]cn1)C(=O)N[C@@H](Cc1c[nH]c2ccccc12)C(=O)N[C@@H](CC(=O)O)C(=O)N[C@H](C(=O)N[C@@H](CC(=O)O)C(=O)N[C@@H](CCCCN)C(=O)O)[C@@H](C)O)C(C)C [Formula (3), H-Leu-Arg-Pro-Gly-Pro-Val-Ser-Gln-Pro-Tyr-His-His-Trp-Asp-Thr-Asp-Lys-OH, reference compound]				○			
